Assay results reported in patent EP0550008A2, “Use of N-acyl derivatives of aminoalcohols with polycarboxylic acids for the manufacture of a medicament for the treatment of pathologies relating to mast cells” (LIFEGROUP S.p.A., priority 1991, dated 1993).

Columns and labels:
[1] = system: mast cells degranulation; assay: in vivo mast cell degranulation induced by substance P in the auricular pinna, systemic subcutaneous pretreatment; set-up: species or system Sprague Dawley rats
Experimental: • 2 weeks old Sprague […] rats, provided by Charles River from Calco, were locally treated by intradermal injection on the auricular pinna with the compounds in question at the dose of 0.5mg/kg, in a buffered aqueous solution at physiological pH. After 10 minutes a local administration, still by intradermal route, followed, of the substance P (10^-4 M), able to induce a mast cells degranulation response. After 30' from the subtance P administration, the animals were sacrificed and the relative tissue samples (pinna) were taken, for an analysis of the morphological aspect of the mast cells residing in the connectival tissues after fixation and coloration with toluidine blue. The inhibition degree in mast cells degranulation in the tissues of the animals treated with the compounds under question, and compared with those of animals treated only with the physiological degranulation factor (substance P) was considered as a parameter for the biological activity. […] The pharmacologic activity of the compounds under question was also verified under conditions of a systemic subcutaneous administration. In this case the animals were firstly treated with 20 mg/kg of the substances under question and after 30 minutes were exposed to the degranulation stimulus with the substance P (10^-6 M) in the auricular pinna. Then we proceeded as previously described. In Tab.2 the obtained results are reported on an average of 500-800 cells. Tab.2

[2] = system: Peritoneal mast cells of rat; assay: in vitro degranulation of cultured peritoneal mast cells stimulated with substance P; assay type: cell-based
Experimental: Peritoneal mast cells of rat were taken according to the standard methodology described by Lagunoff (1975, Tech. Biochem. Biophys. Morphol. , 2, pp. 289-305).
The cells were then cultured in MEM which 10% fetal calf serum was added to and then incubated in a Haereus^R incubator for 30 minutes.
The derivatives under question at the concentration of 10⁻⁵ M were added to the incubation medium .
At the end of the incubation the physiological degranulation stimulus represented by the substance P (10⁻⁴) was added.
The cells were then centrifugated in order to remove the supernatant formed by the incubation medium and placed onto the slide after coloration with toluidine blue, for the analysis of the morphological aspect at the optical microcope.
Also under these conditions the parameter to be considered was the percentage of degranulated cells after stimulation with the Substance P.

[3] = system: mast cells degranulation; assay: in vivo mast cell degranulation induced by substance P in the auricular pinna, intradermal (local) pretreatment; set-up: species or system Sprague Pawley rats; details: compound 0.5 mg/kg intradermal on the auricular pinna, substance P (10⁻⁴ M) intradermal after 10 minutes, sacrifice 30' later
Experimental: • 2 weeks old Sprague Pawley rats, provided by Charles River from Calco, were locally treated by intradermal injection on the auricular pinna with the compounds in question at the dose of 0.5mg/kg, in a buffered aqueous solution at physiological pH. After 10 minutes a local administration, still by intradermal route, followed, of the substance P (10⁻⁴ M), able to induce a mast cells degranulation response. After 30' from the subtance P administration, the animals were sacrificed and the relative tissue samples (pinna) were taken, for an analysis of the morphological aspect of the mast cells residing in the connectival tissues after fixation and coloration with toluidine blue. The inhibition degree in mast cells degranulation in the tissues of the animals treated with the compounds under question, and compared with those of animals treated only with the physiological degranulation factor (substance P) was considered as a parameter for the biological activity.

[4] = solubility in organic solvents; assay type: physicochemical; details: organic solvent or mixture
[5] = solubility in water; assay type: physicochemical
[6] = compound 20 mg/kg subcutaneous, substance P (10⁻⁶ M) in the auricular pinna after 30 minutes, average of 500-800 cells
[7] = compound 10⁻⁵ M in the incubation medium, 30 minutes, then substance P (10⁻⁴)

| Structure (SMILES) | % of cells undergoing degranulation [1, 6] [%] | solubility ([4]; in DMSO) [mg/mL] | solubility [5] [mg/mL] | other results |
| --- | --- | --- | --- | --- |
| O=C(CCCCCCCC(=O)NCCO)NCCO [(3), N,N'-bis-(2-hydroxyethyl)-nonandiamide] | 30 | – | – | % of cells undergoing degranulation [2, 7]: 30%; % of cells undergoing degranulation [3]: 30%; solubility ([4]; solvent not stated): > 10 mg/mL |
| O=C(CC(O)C(=O)NCCO)NCCO (racemic) [(8), N,N'-bis (2-hydroxyethyl)-(+/-)2-hydroxysuccinimide] | 31 | > 10 | > 10 | – |
| O=C(CCCC(=O)NCCO)NCCO [(15), N,N'-bis-(2-hydroxyethyl)-glutaroyldiamide] | 30 | > 10 | > 10 | – |
| O=C(CC(=O)NCCO)NCCO [(7), N,N' -(2-hydroxyethyl)-malondiamide] | 35 | > 5 | > 10 | solubility ([4]; in ethanol): > 10 mg/mL |
| O=C(/C=C/CCCCCCCCC(=O)NCCO)NCCO [(6), N,N'-bis (2-hydroxyethyl)trans-2-dodecendiamide] | 33.6 | > 10 | – | solubility ([4]; in ethanol): > 10 mg/mL; solubility ([5]; at 95 °C): > 10 mg/mL |
| O=C(NCCO)c1cc(=O)c2c(OCC(O)COc3cccc4oc(C(=O)NCCO)cc(=O)c34)cccc2o1 [(11), N,N'-bis (2-hydroxyethyl)-cromoglycholyldiamide] | 28.6 | > 10 | > 10 | – |
| O=C(/C=C/C(=O)NCCO)NCCO [(1), N-fumaroylethanolamide] | 28 | < 20 | < 20 | % of cells undergoing degranulation [2, 7]: 35%; % of cells undergoing degranulation [3]: 40%; solubility ([4]; in hot ethanol): < 20 mg/mL |
| O=C(NCCO)c1ccccc1C(=O)NCCO [(13), N,N' -bis (2-hydroxyethyl)-phthaloyldiamide] | 35.5 | – | > 10 | solubility ([4]; in ethanol): > 10 mg/mL |
| O=C(/C=C/C=C/C(=O)NCCO)NCCO [(14), N,N'-bis (2-hydroxyethyl)-trans,trans-muconoyldiamide] | 40.2 | > 10 | > 10 | – |
| O=C(NCCO)[C@H](O)[C@@H](O)C(=O)NCCO [(9), (R,R)-(+) 2,3-dihydroxy-N,N'-bis (2-hydroxyethyl)-succinamide] | 32 | > 10 | > 10 | – |
| NC(CC(=O)NCCO)C(=O)NCCO (stereo not shown) [(12), N,N'-bis (2-hydroxyethyl)-aspartyldiamide] | 30 | > 10 | > 10 | – |
| CSCC[C@H](NC(=O)[C@H](CC(C)C)NC(=O)CNC(=O)[C@H](Cc1ccccc1)NC(=O)[C@H](Cc1ccccc1)NC(=O)[C@H](CCC(N)=O)NC(=O)[C@H](CCC(N)=O)NC(=O)[C@@H]1CCCN1C(=O)[C@H](CCCCN)NC(=O)[C@@H]1CCCN1C(=O)[C@@H](N)CCCNC(=N)N)C(N)=O [substance P, reference compound] | – | – | – | % of cells undergoing degranulation ([1]; substance P (10⁻⁶ M) in the auricular pinna alone, no pretreatment): 92%; % of cells undergoing degranulation ([2]; substance P (10⁻⁴) alone): 96% |
| CC(O)CNC(=O)/C=C/C(=O)NCC(C)O (stereo not shown) [(10), N,N'-bis (2-hydroxypropyl)-fumaroyldiamide] | 38 | > 10 | > 10 | – |
| O=C(CCC(=O)NCCO)NCCO [(4), N,N'-bis-(2-hydroxyethyl)-succinamide] | 32 | > 10 | – | % of cells undergoing degranulation [2, 7]: 35% |
| O=C(NCCO)C(=O)NCCO [(5), N,N'-bis(2-hydroxyethyl)-oxalyldiamide] | 45.5 | > 10 | > 10 | – |
| O=C(/C=C/C(=O)N(CCO)CCO)N(CCO)CCO [(2), N,N,N',N'-tetra (2-hydroxyethyl)-fumaroyl-diamide] | 32 | > 10 | > 10 | % of cells undergoing degranulation [2, 7]: 30%; solubility ([4]; in hot ethanol): > 10 mg/mL |
